Experimental data published in patent US20240254096A1, “ULTRAVIOLET AND VISIBLE RADIATION ABSORBING COMPOUNDS” (ELKIMIA INC., priority 2021, published 2024).
“And” between values parts separate entries of the source, which are not always exact repeats. Identical values can stand only once.

Tests used:
[1] = SPF in vitro / UVA PF from UV transmittance through thin film on PMMA plates; details: for SPF in vitro mean / UV APF: 0.75 mg/cm^2; for SPF P / UV APF P: P (after irradiation, 800 J/m^2-eff)
Description: For determining the SPF in vitro value, the protection performance of compounds according to certain embodiments of the present technology, against erythemally-effective UV radiation, largely confined to the UVB (290-320 nm) and short-wavelength UVA (320-340) region, was calculated from the measured in vitro transmittance. The in vitro UVA PF, the UVA protection (320-400 nm), was calculated from the measured in vitro transmittance after irradiation. The Critical Wavelength Value was defined as the wavelength at which the integral of the spectral absorbance curve reached 90% of the integral over the UV spectrum from 290 to 400 nm. It has been settled that this value must be equal or over 370 nm so as to classify the product as broad-spectrum. The study consisted in a comparative assay of non-treated plates against plates treated with each of the compounds and was based on the evaluation of UV-transmittance through a thin film of sunscreen sample spread on a roughened substrate, before an after exposure to a controlled dose of UV radiation from a UV source. A Kontron 933 spectrophotometer equipped with a UV source, an integrating sphere and a monochromatic light able to deliver a flow of energy between 290 and 400 nm was used. The transmittance values were measured at 1 nm intervals. A 10-4 precision laboratory balance was used to control deposited product weight. The irradiation was provided by Sunset Atlas CPS+ with standard filter. Temperature regulation of the equipment was done in the range of 25-35° C. A pre-irradiation dose of 4 times 200 J/m^2-eff (800 J/m^2-eff) was delivered. The substrate was the material to which the sunscreen product was applied. Polymethylmethacrylate (PMMA) plates were used and were roughened on one side to a three-dimensional surface topography of 5 micrometers. Each compound was weighted and applied evenly to the PMMA plate with a 2-phase spreading to achieve a 0.75 mg/cm^2 weight/surface ratio. Spreading was performed with a light spreading move for approximately 30 seconds followed by spreading with greater pressure for approximately 30 seconds. The resulting sample was left to equilibrate for 15 minutes in the dark at room temperature to ensure a self-leveling of the formula. To account for lack of photostability, a pre-irradiation was necessary. The pre-irradiation dose was 4 minimal erythema dose (MEDs), equivalent to 800 J/m^2-eff. Five measurements of spectral irradiance transmitted for each wavelength through the PMMA plate covered with the sunscreen product were obtained after pre-irradiation of the sunscreen product [P1( ), P2( ), P3( ), P4( ) and P5( )]. For each compound, mean absorbance values were determined from at least three individual PMMA plates. To validate the accuracy of the results, a control product with an established SPF of 18-20, Lot 11T0313 was tested simultaneously with the compounds. SPF in vitro was calculated for each plate using the Colipa 2011 equation.

[2] = Thermal stability by Thermogravimetric Analysis (TGA); assay type: physicochemical; details: for T onset: by intersection points of tangents
Description: Briefly, the residual weight (%) of the compounds was measured at different temperatures, including 100° C. for water boiling, and other temperatures corresponding to extrusion processes, and the T onset (° C.) by intersection points of tangents was checked. The results are represented in Table 16 below, and in FIG. 6.

| Compound | SPF Change % [1] | ΔSPF [1] | SPF in vitro mean [1] | UV APF [1] | SPF P [1] | UV APF P [1] | Residual weight % at different temperatures ([2]; 100 (° C.)) | Residual weight % at different temperatures ([2]; 190 (° C.)) | Residual weight % at different temperatures ([2]; 210 (° C.)) | Residual weight % at different temperatures ([2]; 250 (° C.)) | T onset [2] |
| --- | --- | --- | --- | --- | --- | --- | --- | --- | --- | --- | --- |
| CCOC(=O)C1CSC2=C(CC(C)(C)C/C2=N\c2ccc(/N=N/c3ccccc3)cc2)N1 (centres unmarked) [Formula 15] | 41% | 8 | 28.31 | 4.52 | 27.34 | 4.49 |  |  |  |  |  |
| CCOC(=O)C1CSC2=C(CC(C)(C)C/C2=N\c2ccc(-c3ccccc3)cc2)N1 (centres unmarked) [Formula 19] | 35% | 7 | 27.12 | 4.07 | 24.31 | 3.92 |  |  |  |  |  |
| CCOC(=O)CNC1=C/C(=N/c2ccc(-c3ccccc3)cc2)CC(C)(C)C1 [Formula 31] | 63% | 13 | 32.75 | 2.95 | 30.52 | 2.88 |  |  |  |  |  |
| CCOC(=O)CNC1=C/C(=N/c2ccc(/N=N/c3ccccc3)cc2)CC(C)(C)C1 [Formula 33] | 81% | 16 | 36.23 | 4.26 | 33.16 | 4.36 |  |  |  |  |  |
| CCOC(=O)CNC1=C/C(=N/c2ccccc2)CC(C)(C)C1 [Formula 46] |  |  |  |  |  |  | 99.4 w % | 99.1 w % | 98.4 w % | 52.4 w % | 215.2 C |
| CCOC(=O)CNC1=C/C(=N/c2ccc(Nc3ccccc3)cc2)CC(C)(C)C1 [Formula 47] |  |  |  |  |  |  | 99.5 w % | 99.2 w % | 99.0 w % | 79.5 w % | 226.0 C |
| CCOC(=O)CNC1=C/C(=N/c2ccc(N3CCOCC3)cc2)CC(C)(C)C1 [Formula 48] |  |  |  |  |  |  | 99.2 w % | 98.8 w % | 97.8 w % | 72.9 w % | 215.7 C |
| CCOC(=O)CNC1=C/C(=N/c2ccc(OCc3ccccc3)cc2)CC(C)(C)C1 [Formula 49] |  |  |  |  |  |  | 99.3 w % | 97.8 w % | 97.2 w % | 70.2 w % | 215.3 C |
| CCOC(=O)CNC1=C/C(=N/c2ccc(Oc3ccccc3)cc2)CC(C)(C)C1 [Formula 50] |  |  |  |  |  |  | 99.2 w % | 98.1 w % | 97.9 w % | 69.3 w % | 229.5 C |
| CCOC(=O)CNC1=C/C(=N/c2ccc(C(C)=O)cc2)CC(C)(C)C1 [Formula 51] |  |  |  |  |  |  | 99.5 w % | 96.1 w % | 85.8 w % | 65.1 w % | 188.0 C |
| CCOC(=O)CNC1=C/C(=N/c2ccc(N(C)C)cc2)CC(C)(C)C1 [Formula 52] |  |  |  |  |  |  | 95.9 w % | 92.4 w % | 86.0 w % | 63.2 w % | 199.1 C |
| CCOC(=O)CNC1=C/C(=N/c2ccc(OC(F)(F)F)cc2)CC(C)(C)C1 [Formula 53] |  |  |  |  |  |  | 99.5 w % | 98.6 w % | 86.3 w % | 40.5 w % | 199.3 C |
| CCOC(=O)CNC1=C/C(=N/c2ccc(NC(=O)OC(C)(C)C)cc2)CC(C)(C)C1 [Formula 54] |  |  |  |  |  |  | 98.0 w % | 84.0 w % | 72.7 w % | 60.1 w % | 176.7 C |
| CCOC(=O)CNC1=C/C(=N/c2ccc(Cn3cncn3)cc2)CC(C)(C)C1 [Formula 55] |  |  |  |  |  |  | 97.8 w % | 96.4 w % | 92.2 w % | 71.2 w % | 205.0 C |
| CCOC(=O)CNC1=C/C(=N/c2ccc3c(c2)OCCO3)CC(C)(C)C1 [Formula 56] |  |  |  |  |  |  | 99.4 w % | 98.9 w % | 94.3 w % | 68.0 w % | 207.6 C |
| CCOC(=O)C1CSC2=C(CC(C)(C)C/C2=N\c2ccc(OCc3ccccc3)cc2)N1 (centres unmarked) [Formula 60] |  |  |  |  |  |  | 97.8 w % | 85.6 w % | 77.0 w % | 58.2 w % | 168.9 C |
| CCOC(=O)C1CSC2=C(CC(C)(C)C/C2=N\c2ccc(Oc3ccccc3)cc2)N1 (centres unmarked) [Formula 61] |  |  |  |  |  |  | 99.0 w % | 98.2 w % | 92.6 w % | 62.1 w % | 205.0 C |
| CCOC(=O)C1CSC2=C(CC(C)(C)C/C2=N\c2ccc(N3CCOCC3)cc2)N1 (centres unmarked) [Formula 62] |  |  |  |  |  |  | 94.5 w % | 85.0 w % | 75.8 w % | 54.0 w % | 186.1 C |
| C#Cc1ccc(/N=C2\CC(C)(C)CC3=C2SCC(C(=O)OCC)N3)cc1 (centres unmarked) [Formula 63] |  |  |  |  |  |  | 98.7 w % | 97.3 w % | 88.4 w % | 68.0 w % | 197.4 C |
| CCOC(=O)C1CSC2=C(CC(C)(C)C/C2=N\c2ccc(Nc3ccccc3)cc2)N1 (centres unmarked) [Formula 64] |  |  |  |  |  |  | 97.2 w % | 87.7 w % | 80.3 w % | 60.9 w % | 187.0 C |
| CCOC(=O)C1CSC2=C(CC(C)(C)C/C2=N\c2ccc(Cn3cncn3)cc2)N1 (centres unmarked) [Formula 65] |  |  |  |  |  |  | 95.3 w % | 91.7 w % | 89.3 w % | 80.3 w % | 200.2 C |
| COC(=O)C(Cc1ccccc1)NC1=C/C(=N/c2ccc(F)cc2)CC(C)(C)C1 (centres unmarked) [Formula 67] |  |  |  |  |  |  | 99.4 w % | 92.9 w % | 82.0 w % | 68.1 w % | 190.5 C |
| COC(=O)C(Cc1ccccc1)NC1=C/C(=N/c2ccc(OC)cc2)CC(C)(C)C1 (centres unmarked) [Formula 68] |  |  |  |  |  |  | 97.9 w % | 93.6 w % | 87.3 w % | 75.0 w % | 197.2 C |
| CCCCCCCCOc1ccc(/N=C2/C=C(NC(Cc3ccccc3)C(=O)OC)CC(C)(C)C2)cc1 (centres unmarked) [Formula 69] |  |  |  |  |  |  | 99.3 w % | 95.2 w % | 88.0 w % | 82.5 w % | 193.6 C |
| C#Cc1ccc(NC2C=C(NCC(=O)OCC)CC(C)(C)C2)cc1 (centres unmarked) [Formula 76] |  |  |  |  |  |  | 99.6 w % and 99.5 w % | 99.4 w % and 99.2 w % | 99.3 w % and 99.0 w % | 97.7 w % and 91.7 w % | 256.0 C and 248.2 C |
| CCOC(=O)C1CSC2=C(CC(C)(C)CC2Nc2ccccc2)N1 (centres unmarked) [Formula 77] |  |  |  |  |  |  | 99.2 w % | 91.2 w % | 83.8 w % | 66.4 w % | 187.4 C |
